Measured values as given in patent US10160867B2, “Benzoxaborole-containing coating resistant to cellulose-supportable fungus” (THE PENN STATE RESEARCH FOUNDATION, priority 2015, dated 2018).
Converted amounts (≈) assume the structure as drawn. Values belong to the compound of their own block, whether it stands above or below them.

What was measured:
Format in all cases: cell-based
Penicillium chrysogenum [1] = experiment: Fungus resistance test for painted surfaces containing antifungal additives (defacement rating)
Experimental: (§1) A Defacement Rating is measured by estimating the percentage of surface defacement with 10 being no defacement and 0 begin completely defaced.
(§2) This test was used to evaluate the resistance of paint films containing antifungal additives to surface fungal growth.
(§3) Olympic® Home interior flat latex paint (PPG Industries, Pittsburgh, Pa.) and Valspar® QuikHide White flat interior paint (Valspar Corporation, Minneapolis, Minn.) were used for all studies unless otherwise noted. Stock solutions of the antifungal additives of interest were prepared in reagent grade dimethyl sulfoxide (DMSO; Alfa Aesar, Ward Hill, Mass.). Additives were spiked (by adding appropriate amounts of the antifungal stock solutions) into the liquid paint at specified concentrations. Samples of the additive-spiked paint were vigorously mixed with a vortex mixer for at least one minute to ensure uniform dispersion of the additive in the paint. […] Studies that use other brands of paint followed the same protocol as described for those using the Olympic® Home interior flat latex paint and Valspar® QuikHide paint.
(§4) Test surfaces were prepared in triplicate. In most cases, the tested conditions were repeated on a different date, again in triplicate. […] Two coats of paint were applied with a polyester brush to completely cover both faces of the filter paper disc, allowing at least four hours drying time between coats.
(§5) Nutrient-Salts Agar (NSA) medium was prepared according to ASTM method G21-13 in 100×15 mm sterile polystyrene petri dishes (VWR® Radnor, Pa.) with a solidified agar layer of about 3 to about 6 mm (⅛ to ¼ in.) in depth. The agar was allowed to solidify for at least 24 hours before being used. The painted test filter paper discs were placed in the center of the agar plates in a biosafety hood while wearing clean nitrile gloves.
(§6) The paint coatings were evaluated against three representative cellulose-supportable fungi: Stachybotrys chartarum, Penicillium chrysogenum, and Alternaria alternata. […] Fungal isolates of Alternaria alternata and Penicillium chrysogenum were obtained from the Plant Pathology and Environmental Microbiology Department at Penn State University.
(§7) A spore suspension of each of these fungi was prepared by pouring a 20-mL portion of autoclaved deionized water containing 0.01% Tween® 20 onto a subculture of each fungal species. Spores were counted with the use of a hemocytometer (Hausser Scientific, Horsham, Pa.) under a compound light microscope. Spore suspensions of Stachybotrys chartarum and Penicillium chrysogenum were diluted to 1×10^6 spores/mL with autoclaved deionized water. Spore suspensions of Alternaria alternata were used “as is” in the range of 200,000 to 400,000 spores/mL.
(§8) Painted test surfaces were inoculated with a spray bottle or with a sterile cotton-tipped applicator. To inoculate the sample with a spray bottle, the spore suspension was sprayed twice on the painted test discs with an autoclaved spray bottle that delivered approximately 0.14 g of fluid per spray. To inoculate the sample with a cotton-tipped applicator, an autoclaved cotton-tipped applicator was submerged in approximately 400 μL of the spore inoculum solution (spore concentrations described above) and applied evenly over the surface of the painted test surface twice. A fresh autoclaved cotton-tipped applicator was used for the application of each painted disc. All the paint studies with Alternaria alternata and Stachybotrys chartarum were inoculated using the spray bottle method. For studies with Penicillium chrysogenum using Olympic® Home paint, the spray bottle inoculation method was used. For studies with Penicillium chrysogenum using Valspar® QuikHide paint, the cotton-tipped applicator inoculation method was used.
(§9) After inoculation, the NSA agar plates were sealed with Parafilm®.

Alternaria alternata [2] = experiment: as above; settings: +100 μg/mL in Olympic Home paint
Experimental: as §1, §2, §3, §4, §5, §6, §7, §8, §9

Stachybotrys chartarum [3] = experiment: as above; settings: +100 μg/mL in Olympic Home paint
Experimental: as §1, §2, §3, §4, §5, §6, §7, §8, §9

Penicillium chrysogenum [4] = experiment: Fungus resistance test after painting over fungal growth (defacement rating); settings: painted over fungal growth, +200 μg/mL in Valspar QuikHide paint
Excerpt: (§10) In this series of experiments, fungal growth was allowed to cover a painted surface (surface containing 2 coats of the unaltered paint) to a defacement rating of 3-5, forming a ‘contaminated surface’. […] The paint application was extended approximately 1-2 cm beyond the edge of the disc onto the NSA medium. Each formulation used a separate brush to avoid cross contamination. The re-painted discs were placed back into the humid environment with elevated temperature to encourage fungal growth.
(§11) This test was used to evaluate the ability of paint films containing antifungal additives to prevent the re-emergence of fungal growth after painting over existing growth.
(§12) Olympic® Home interior flat latex paint (PPG Industries, Pittsburgh, Pa.) and Valspar® QuikHide White flat interior paint (Valspar Corporation, Minneapolis, Minn.) were used for the experiments in this study unless specified. Stock solutions of the antifungal additives of interest were prepared in reagent grade dimethyl sulfoxide (DMSO; Alfa Aesar, Ward Hill, Mass.). Additives were spiked (by adding appropriate amounts of the antifungal stock solutions) into the liquid paint at specified concentrations. Samples of additive-spiked paint were vigorously mixed with a vortex mixer for at least one minute to insure uniform dispersion of the additive in the paint. […] Studies that used other brands of paint followed the same protocol as described for those using the Olympic® Home interior flat latex paint.
as §4
as §5, with “media” for “medium”, “from” for “of about”, “to” for “to about”
as §6, with “representative” for “representative cellulose-supportable”
(§13) A spore suspension of each of these fungi was prepared by pouring a 20-mL portion of autoclaved deionized water containing 0.01% Tween® 20 onto a subculture of each fungal species. Spores were counted with the use of a hemocytometer (Hausser Scientific, Horsham, Pa.) under a microscope. Spore suspensions of Stachybotrys chartarum and Penicillium chrysogenum were diluted to 1×10^6 spores/mL with autoclaved deionized water. Spore suspensions of Alternaria alternata were used “as is” in the range of 200,000 to 400,000 spores/mL.
(§14) Painted test surfaces were inoculated with a spray bottle or with a cotton-tipped applicator. To inoculate the sample with a spray bottle, the spore suspension was sprayed twice on the painted test discs with a spray bottle that delivered approximately 0.14 g of fluid per spray. To inoculate the sample with a cotton-tipped applicator, an autoclaved cotton-tipped applicator was submerged in approximately 400 μL of the inoculum solution and applied evenly over the surface of the painted test surface twice.

Alternaria alternata [5] = experiment: as above; settings: painted over fungal growth, +100 μg/mL in Olympic Home paint
Excerpt: as §10, §11, §12, §4
as §5, with “media” for “medium”, “from” for “of about”, “to” for “to about”
as §6, with “representative” for “representative cellulose-supportable”
as §13, §14

Stachybotrys chartarum [6] = experiment: as above; settings: for Average defacement rating ± standard deviation: painted over fungal growth, +100 μg/mL in Olympic Home paint; for ability to inhibit Stachybotrys chartarum re-emergence on the surfaces: painting over contaminated surfaces, paints containing 100 μg/mL, after 7 days
Excerpt: as §10, §11, §12, §4
as §5, with “media” for “medium”, “from” for “of about”, “to” for “to about”
as §6, with “representative” for “representative cellulose-supportable”
as §13, §14

Aureobasidium pullulans = experiment: 3 day MIC, broth microdilution in 25% PDB; settings: 72 h
Experimental: (§15) Stock solutions (concentrations of between 4,000 μg/mL to 10,000 μg/mL; stored at −18° C.) of the above antifungals were prepared in dimethyl sulfoxide (DMSO). The stock solutions were further diluted into sterile 25% potato dextrose broth (PDB) so that the diluted solutions could be used for the antifungal susceptibility studies. This way, a typical microdilution study would reach a final ratio of about 0.5-2% v/v of DMSO in 25% PDB.
(§16) Spore inocula were prepared in sterile distilled water with 0.1% Tween® 20 (a polysorbate surfactant), and a hemocytometer was used to determine the spore density. Typically, the spore inoculum was prepared fresh prior to each study, and the inoculum was appropriately diluted to a final concentration of 0.4-1×10^5 spores/mL or colony-forming unit (CFU)/mL in each study. The spore suspension can be stored in a refrigerator at 4° C. for up to one week.
(§17) The minimal inhibitory concentrations (MICs) for individual antifungal agents were determined by following a modified broth microdilution protocol CLSI (Clinical and Laboratory Standards Institute) M38-A2 [Clinical and Laboratory Standards Institute (2008) Reference method for broth dilution antifungal susceptibility testing of filamentous fungi—2nd edition: Approved Standard M38-A2, CLSI, Wayne, Pa.] where 25% potato dextrose broth (PDB) was used as the medium. The studies were performed in flat bottom, 96-well microtiter plates (Greiner Bio-One, Frickenhausen, Germany).
(§18) Plates sealed with clear polyester film (VWR, Radnor, Pa.) were incubated at a temperature of about 25° C. The progress of fungal growth was monitored at 48 hours and 72 hours.

Aspergillus flavus = experiment: 3 day MIC, broth microdilution in 25% PDB; settings: 72 h
Experimental: as §15, §16, §17, §18

Fusarium oxysparum ST-33 = experiment: 3 day MIC, broth microdilution in 25% PDB; settings: ST33, 72 h
Experimental: as §15, §16, §17, §18

Rhizopus spp. = experiment: 3 day MIC, broth microdilution in 25% PDB; settings: 72 h
Experimental: as §15, §16, §17, §18

Mucor spp. = experiment: 3 day MIC, broth microdilution in 25% PDB; settings: 72 h
Experimental: as §15, §16, §17, §18

Aspergillus niger = experiment: 3 day MIC, broth microdilution in 25% PDB; settings: 72 h
Experimental: as §15, §16, §17, §18

Aspergillus fumigatus = experiment: 3 day MIC, broth microdilution in 25% PDB; settings: 72 h
Experimental: as §15, §16, §17, §18

Alternaria alternata [7] = experiment: 3 day MIC, broth microdilution in 25% PDB; settings: 72 h, 25% PDB, read-out: 3 day MIC
Experimental: as §15, §16
(§19) The studies were performed in flat bottom, 96-well microtiter plates (Greiner Bio-One, Frickenhausen, Germany).
as §18

Stachybotrys chartarum [8] = experiment: 3 day MIC, broth microdilution in 25% PDB; settings: 72 h, 25% PDB, read-out: 3 day MIC
Experimental: as §15, §16, §19, §18

Compound: OB1OCc2ccccc21 [Compound B0, 2-(hydroxymethyl)-benzene boronic acid hemiester]
- Average defacement rating ± standard deviation (Penicillium chrysogenum [1]; +100 μg/mL in Olympic Home paint, 7 days): 2.7 ± 0.8
- Average defacement rating ± standard deviation (Penicillium chrysogenum [1]; +100 μg/mL in Olympic Home paint, 14 days): 0.0 ± 0.0
- Average defacement rating ± standard deviation (Penicillium chrysogenum [1]; +100 μg/mL in Olympic Home paint, 21 days): 0.0 ± 0.0
- Average defacement rating ± standard deviation (Penicillium chrysogenum [1]; +200 μg/mL in Olympic Home paint, 7 days): 10.0 ± 0.0
- Average defacement rating ± standard deviation (Penicillium chrysogenum [1]; +200 μg/mL in Olympic Home paint, 14 days): 6.8 ± 4.0
- Average defacement rating ± standard deviation (Penicillium chrysogenum [1]; +200 μg/mL in Olympic Home paint, 21 days): 5.0 ± 5.5
- Average defacement rating ± standard deviation (Penicillium chrysogenum [1]; +200 μg/mL in Valspar QuikHide paint, 7 days): 10.0 ± 0.0
- Average defacement rating ± standard deviation (Penicillium chrysogenum [1]; +200 μg/mL in Valspar QuikHide paint, 14 days): 6.8 ± 4.0
- Average defacement rating ± standard deviation (Penicillium chrysogenum [1]; +200 μg/mL in Valspar QuikHide paint, 21 days): 5.0 ± 5.5
- Average defacement rating ± standard deviation (Alternaria alternata [2]; 7 days): 2.3 ± 2.3
- Average defacement rating ± standard deviation (Alternaria alternata [2]; 14 days): 0.5 ± 1.8
- Average defacement rating ± standard deviation (Alternaria alternata [2]; 21 days): 0.0 ± 0.0
- Average defacement rating ± standard deviation (Stachybotrys chartarum [3]; 7 days): 0.7 ± 1.3
- Average defacement rating ± standard deviation (Stachybotrys chartarum [3]; 14 days): 0.0 ± 0.0
- Average defacement rating ± standard deviation (Stachybotrys chartarum [3]; 21 days): 0.0 ± 0.0
- Average defacement rating ± standard deviation (Penicillium chrysogenum [4]; 7 days): 0.0 ± 0.0 (9)
- Average defacement rating ± standard deviation (Penicillium chrysogenum [4]; 14 days): 0.0 ± 0.0 (9)
- Average defacement rating ± standard deviation (Penicillium chrysogenum [4]; 21 days): 0.0 ± 0.0 (9)
- Average defacement rating ± standard deviation (Alternaria alternata [5]; 7 days): 2.1 ± 1.6 (6)
- Average defacement rating ± standard deviation (Alternaria alternata [5]; 14 days): 1.0 ± 1.3 (6)
- Average defacement rating ± standard deviation (Alternaria alternata [5]; 21 days): 0.4 ± 0.6 (6)
- Average defacement rating ± standard deviation (Stachybotrys chartarum [6]; 7 days): 6.1 ± 3.3 (9)
- Average defacement rating ± standard deviation (Stachybotrys chartarum [6]; 14 days): 4.4 ± 3.0 (9)
- Average defacement rating ± standard deviation (Stachybotrys chartarum [6]; 21 days): 3.9 ± 2.9 (9)

- MIC (Aureobasidium pullulans): 1 µg/mL (≈ 6.76 µM)
- MIC (Aspergillus flavus): 2 µg/mL (≈ 13.5 µM)
- MIC (Fusarium oxysparum ST-33): 1 µg/mL (≈ 6.76 µM)
- MIC (Rhizopus spp.): 16 µg/mL (≈ 108 µM)
- MIC (Mucor spp.): 1 µg/mL (≈ 6.76 µM)
- MIC (Aspergillus niger): 2 µg/mL (≈ 13.5 µM)
- MIC (Aspergillus fumigatus): 0.25 µg/mL (≈ 1.69 µM)
- MIC (Alternaria alternata [7]): 6.3 µg/mL (≈ 42.6 µM)
- MIC (Stachybotrys chartarum [8]): 0.5 µg/mL (≈ 3.38 µM)
Compound: Cc1ccc2c(c1)COB2O [Compound B1, 5-Methyl-1,3-dihydro-2,1-benzoxaborol-1-ol]
- ability to inhibit Stachybotrys chartarum re-emergence on the surfaces (Stachybotrys chartarum [6]): very little ability to inhibit

- MIC (Alternaria alternata [7]): 200 µg/mL (≈ 1210 µM)
- MIC (Stachybotrys chartarum [8]): 6.3 µg/mL (≈ 38 µM)
Compound: OB1OCCc2cc(F)ccc21 [Compound B5, 6-fluoro-3,4-dihydro-1H-2,1-benzoxaborinin-1-ol]
- ability to inhibit Stachybotrys chartarum re-emergence on the surfaces (Stachybotrys chartarum [6]): very little ability to inhibit
